Assay in all cases: Anti-proliferative activity, cell-titre luminescent viability assay
Common to all, as to type: cell-based

The subject of experiment [1] is MDA-MB-231. To be noted: Homo sapiens, read-out: IC50 Breast MDA-MB-231. How it is done: (§1) The ability of compounds 3501-3540 and 3542-3545 to inhibit the proliferation of cancer cells representative of neuroblastoma, melanoma, prostate cancer, colorectal cancer, non-small cell lung carcinoma, and triple negative breast cancer was assessed. Briefly, a pre-determined number of cells as calculated from cell growth assays for each of the cell lines employed were seeded into their respective culture medium (using ATCC culture parameters—http://www.atcc.org) and cultured for 24 hours at 37° C. and 5% CO2 in 96-well culture plates. Once attached, each cell line was then exposed to increasing concentrations of each respective analogue (0.03, 0.3, 3 and 30 μM for compounds in Table 1; 0.1, 0.3, 1, 3, 10 and 30 μM for compounds in Table 2), cultured for a further 72 hours and exposed to cell-titre luminescent reagent (100 μL/well) for a further 30 min) to assess for cell viability. Luminescence was captured using an EnVision multilabel reader and the data for each analogue concentration was normalized, as a percentage, to the no treatment control. For compounds 3501, 3503, 3505-08, 3512-18, 3520, 3522-24 and 3531-36, semi-log plots of Percent of Control versus concentration were prepared and IC50 determined using linear regression analysis. For compounds 3502, 3504, 3509-11, 3519, 3521, 3525-30, 3537-40 and 3542-45, cell viability was normalized to control (vehicle alone) and dose-response curves, and half maximal effective concentration (EC50) values were determined using Graph Pad Prism 6 (nonlinear regression sigmoidal dose-response variable slope).

In experiment [2] the test system is DU145. To be noted: Homo sapiens, read-out: IC50 Prostate DU145. How it is done: as §1
Experiment [3] relates to A549. To be noted: Homo sapiens, read-out: IC50 Lung (NSLC) A549. How it is done:
as §1

Experiment [4] concerns SK-N-SH. To be noted: Homo sapiens, SK-N-SH, read-out: IC50 Neuroblastoma SK-N-SH. How it is done: as §1
Experiment [5] deals with CaCo2. To be noted: Homo sapiens, read-out: IC50 Colorectal CaCo2. On the procedure:
as §1

For experiment [6], the system named is PC3. To be noted: Homo sapiens, read-out: IC50 Prostate PC3. How it is done: as §1
Experiment [7] deals with SK-Mel-28. To be noted: Homo sapiens, SK-MEL-28, 72 hours, read-out: IC50 Melanoma SK-Mel-28. On the procedure:
as §1

Setting [8] is: MDA-MB-231, 72 h, 0.03, 0.3, 3 and 30 μM, linear regression of semi-log plots.
[9] abbreviates: DU-145, 72 h, 0.03, 0.3, 3 and 30 μM, linear regression of semi-log plots.
The mark [10] stands for this setting: A549, 72 h, 0.03, 0.3, 3 and 30 μM, linear regression of semi-log plots.
The mark [11] stands for this setting: 72 h, 0.03, 0.3, 3 and 30 μM, linear regression of semi-log plots.
[12] abbreviates: Caco-2, 72 h, 0.03, 0.3, 3 and 30 μM, linear regression of semi-log plots.
Where [13] appears, read: PC-3, 72 h, 0.03, 0.3, 3 and 30 μM, linear regression of semi-log plots.
The mark [14] stands for this setting: 0.03, 0.3, 3 and 30 μM, linear regression of semi-log plots.
The mark [15] stands for this setting: MDA-MB-231, 72 h, 0.1, 0.3, 1, 3, 10 and 30 μM, nonlinear regression sigmoidal dose-response (EC50).
[16] abbreviates: DU-145, 72 h, 0.1, 0.3, 1, 3, 10 and 30 μM, nonlinear regression sigmoidal dose-response (EC50).
[17] abbreviates: A549, 72 h, 0.1, 0.3, 1, 3, 10 and 30 μM, nonlinear regression sigmoidal dose-response (EC50).
Setting [18] is: 72 h, 0.1, 0.3, 1, 3, 10 and 30 μM, nonlinear regression sigmoidal dose-response (EC50).
Where [19] appears, read: Caco-2, 72 h, 0.1, 0.3, 1, 3, 10 and 30 μM, nonlinear regression sigmoidal dose-response (EC50).
Setting [20] is: PC-3, 72 h, 0.1, 0.3, 1, 3, 10 and 30 μM, nonlinear regression sigmoidal dose-response (EC50).
Where [21] appears, read: 0.1, 0.3, 1, 3, 10 and 30 μM, nonlinear regression sigmoidal dose-response (EC50).

Where two headings read alike, the source gives them in different places.

The values that follow come from US20170152226A1, “FUNCTIONALISED AND SUBSTITUTED INDOLES AS ANTI-CANCER AGENTS” (Novogen Ltd., priority 2014, published 2017).

By IC50 is commonly meant the concentration needed to halve the response being measured. Regarding `Cc1c(C)n(CCCN2CCN(C)CC2)c2ccc(Cc3cccc(C(=O)N4CCN(CCc5ccc(F)cc5)CC4)c3)cc12` [Compound 3501, (3-((2,3-dimethyl-1-(3-(4-methylpiperazin-1-yl)propyl)-1H-indol-5-yl)methyl)phenyl)(4-(4-fluorophenethyl)piperazin-1-yl)methanone], the IC50 in experiment [1] (setting [8]) is 2.1 µM; in experiment [2] (setting [9]), 2.6 µM; in experiment [3] (setting [10]), 3.7 µM; in experiment [4] (setting [11]), 3.1 µM; in experiment [5] (setting [12]), 3.1 µM; in experiment [6] (setting [13]), 2.4 µM. In addition, the IC50 in experiment [7] (setting [14]) was found to be 1.3 µM.
Turning to `COc1ccc(CCN2CCN(C(=O)c3cccc(Cc4ccc5c(c4)c(C)c(C)n5CCCN4CCN(C)CC4)c3)CC2)cc1` [Compound 3502, (3-((2,3-dimethyl-1-(3-(4-methylpiperazin-1-yl)propyl)-1H-indol-5-yl)methyl)phenyl)(4-(4-methoxyphenethyl)piperazin-1-yl)methanone], the IC50 was found to be 4.9 µM in experiment [1] (setting [15]); 4.9 µM in experiment [2] (setting [16]); 5 µM in experiment [3] (setting [17]); 4.6 µM in experiment [4] (setting [18]); 5.8 µM in experiment [5] (setting [19]); 5.4 µM in experiment [6] (setting [20]). For the same molecule, in experiment [7] (setting [21]), the IC50 came out at 2.6 µM.
As to `Cc1c(C)n(CCCN2CCN(C)CC2)c2ccc(Cc3cccc(C(=O)N4CCN(CCc5ccc6c(c5)OCO6)CC4)c3)cc12` [Compound 3503, (4-(2-(benzo[d][1,3]dioxol-5-yl)ethyl)piperazin-1-yl)(3-((2,3-dimethyl-1-(3-(4-methylpiperazin-1-yl)propyl)-1H-indol-5-yl)methyl)phenyl)methanone], the half-inhibitory concentration (IC50) in experiment [1] (setting [8]) is 1 µM; in experiment [2] (setting [9]), 2.1 µM; in experiment [3] (setting [10]), 1.4 µM; in experiment [4] (setting [11]) it was 2.1 µM; in experiment [5] (setting [12]) it was 3.4 µM; in experiment [6] (setting [13]), 2.4 µM. Further, the IC50 in experiment [7] (setting [14]) is 1 µM.
In the case of `COc1cccc(CCN2CCN(C(=O)c3cccc(Cc4ccc5c(c4)c(C)c(C)n5CCCN4CCN(C)CC4)c3)CC2)c1` [Compound 3505, (3-((2,3-dimethyl-1-(3-(4-methylpiperazin-1-yl)propyl)-1H-indol-5-yl)methyl)phenyl)(4-(3-methoxyphenethyl)piperazin-1-yl)methanone], the IC50 in experiment [1] (setting [8]) was 2.8 µM; in experiment [2] (setting [9]) it was 3.4 µM; in experiment [3] (setting [10]), 3.1 µM; in experiment [4] (setting [11]) it was 2.6 µM; in experiment [5] (setting [12]) it was 3.6 µM; in experiment [6] (setting [13]), 2.6 µM. Also, in experiment [7] (setting [14]), the IC50 turned out to be 2.5 µM.
As for `Cc1c(C)n(CCCN2CCN(C)CC2)c2ccc(Cc3cccc(C(=O)N4CCN(CCc5ccccc5)CC4)c3)cc12` [Compound 3506, (3-((2,3-dimethyl-1-(3-(4-methylpiperazin-1-yl)propyl)-1H-indol-5-yl)methyl)phenyl)(4-phenethylpiperazin-1-yl)methanone], the IC50 in experiment [1] (setting [8]) was found to be 1.9 µM; in experiment [2] (setting [9]), 3.2 µM; in experiment [3] (setting [10]) it was 3 µM; in experiment [4] (setting [11]), 3.7 µM; in experiment [5] (setting [12]) it was 2.7 µM; in experiment [6] (setting [13]), 2.1 µM. Moreover, the IC50 in experiment [7] (setting [14]) is 1.3 µM.
`COc1ccc(CCN2CCN(C(=O)c3cccc(Oc4ccc5c(c4)c(C)c(C)n5CCCN4CCN(C)CC4)c3)CC2)cc1` [Compound 3508, (3-((2,3-dimethyl-1-(3-(4-methylpiperazin-1-yl)propyl)-1H-indol-5-yl)oxy)phenyl)(4-(4-methoxyphenethyl)piperazin-1-yl)methanone]: the half-inhibitory concentration (IC50) was determined as 1.8 µM in experiment [1] (setting [8]); 3.1 µM in experiment [2] (setting [9]); 1.8 µM in experiment [3] (setting [10]); 1.7 µM in experiment [4] (setting [11]); 3.1 µM in experiment [5] (setting [12]); 2.4 µM in experiment [6] (setting [13]). In experiment [7] (setting [14]), the IC50 worked out at 1.6 µM.
`Cc1c(C)n(CCCN2CCN(C)CC2)c2ccc(Oc3cccc(C(=O)N4CCN(CCc5ccc6c(c5)OCO6)CC4)c3)cc12` [Compound 3509, (4-(2-(benzo[d][1,3]dioxol-5-yl)ethyl)piperazin-1-yl)(3-((2,3-dimethyl-1-(3-(4-methylpiperazin-1-yl)propyl)-1H-indol-5-yl)oxy)phenyl)methanone]: the IC50 in experiment [1] (setting [15]) came out at 5 µM; in experiment [2] (setting [16]) it was 5.9 µM; in experiment [3] (setting [17]), 4.7 µM; in experiment [4] (setting [18]), 5.3 µM; in experiment [5] (setting [19]), 5.2 µM; in experiment [6] (setting [20]), 6.9 µM. Also, the IC50 in experiment [7] (setting [21]) turned out to be 5.1 µM.
For the molecule `Cc1c(C)n(CCCN2CCN(C)CC2)c2ccc(Oc3cccc(C(=O)N4CCN(CCc5cccc(F)c5)CC4)c3)cc12` [Compound 3510, (3-((2,3-dimethyl-1-(3-(4-methylpiperazin-1-yl)propyl)-1H-indol-5-yl)oxy)phenyl)(4-(3-fluorophenethyl)piperazin-1-yl)methanone], the IC50 in experiment [1] (setting [15]) came out at 20.4 µM; in experiment [2] (setting [16]), 8 µM; in experiment [3] (setting [17]), 6 µM; in experiment [4] (setting [18]), 4.6 µM; in experiment [5] (setting [19]), 5.8 µM; in experiment [6] (setting [20]) it was 8 µM. Besides, the IC50 in experiment [7] (setting [21]) came out at 4.9 µM.
As to `COc1cccc(CCN2CCN(C(=O)c3cccc(Oc4ccc5c(c4)c(C)c(C)n5CCCN4CCN(C)CC4)c3)CC2)c1` [Compound 3511, (3-((2,3-dimethyl-1-(3-(4-methylpiperazin-1-yl)propyl)-1H-indol-5-yl)oxy)phenyl)(4-(3-methoxyphenethyl)piperazin-1-yl)methanone], the IC50 in experiment [1] (setting [15]) came to 19.3 µM; in experiment [2] (setting [16]), 3.3 µM; in experiment [3] (setting [17]), 2.6 µM; in experiment [4] (setting [18]), 2.1 µM; in experiment [5] (setting [19]), 3.5 µM; in experiment [6] (setting [20]), 2.6 µM. The IC50 in experiment [7] (setting [21]) is 6.5 µM.
With `Cc1c(C)n(CCCN2CCN(C)CC2)c2ccc(Oc3cccc(C(=O)N4CCN(CCc5ccccc5)CC4)c3)cc12` [Compound 3512, (3-((2,3-dimethyl-1-(3-(4-methylpiperazin-1-yl)propyl)-1H-indol-5-yl)oxy)phenyl)(4-phenethylpiperazin-1-yl)methanone], the IC50 in experiment [1] (setting [8]) was determined as 1.2 µM; in experiment [2] (setting [9]), 1.3 µM; in experiment [3] (setting [10]), 1.3 µM; in experiment [4] (setting [11]), 1.8 µM; in experiment [5] (setting [12]), 3.2 µM; in experiment [6] (setting [13]), 2.1 µM. Also, in experiment [7] (setting [14]), the IC50 amounted to 0.7 µM.
Regarding `Cc1c(C)n(CCCN2CCN(C)CC2)c2ccc(Nc3cccc(C(=O)N4CCN(CCc5ccc(F)cc5)CC4)c3)cc12` [Compound 3513, (3-((2,3-dimethyl-1-(3-(4-methylpiperazin-1-yl)propyl)-1H-indol-5-yl)amino)phenyl)(4-(4-fluorophenethyl)piperazin-1-yl)methanone], the IC50 stood at 3.6 µM in experiment [1] (setting [8]); 3.8 µM in experiment [2] (setting [9]); 3.3 µM in experiment [3] (setting [10]); 3.3 µM in experiment [4] (setting [11]); 3.1 µM in experiment [5] (setting [12]); 4 µM in experiment [6] (setting [13]). The IC50 in experiment [7] (setting [14]) is 3.4 µM.
As for `COc1ccc(CCN2CCN(C(=O)c3cccc(Nc4ccc5c(c4)c(C)c(C)n5CCCN4CCN(C)CC4)c3)CC2)cc1` [Compound 3514, (3-((2,3-dimethyl-1-(3-(4-methylpiperazin-1-yl)propyl)-1H-indol-5-yl)amino)phenyl)(4-(4-methoxyphenethyl)piperazin-1-yl)methanone], the IC50 in experiment [1] (setting [8]) turned out to be 1.3 µM; in experiment [2] (setting [9]), 3.8 µM; in experiment [3] (setting [10]) it was 1.4 µM; in experiment [4] (setting [11]), 1.3 µM; in experiment [5] (setting [12]), 3.1 µM; in experiment [6] (setting [13]), 3.5 µM. In experiment [7] (setting [14]), the IC50 turned out to be 1.3 µM.
